Values after ≈ are worked out from the molar mass of the structure shown. Where two headings read alike, the source gives them in different places.
Assays:
[1] = tested on: E. coli S30 extract cell-free transcription-translation system; experiment: inhibition of firefly luciferase synthesis in cell-free bacterial translation system; type: biochemical; conditions: 30 µM compound
Method: The next step was to test the new CAM-Cn-TPP compounds for their ability to inhibit the synthesis of the firefly luciferase reporter in vitro in a cell-free transcription-translation system based on an E. coli S30 extract.
The inhibition of firefly luciferase synthesis in cell-free translation systems by CAM-Cn-TPP was tested with an E. coli S30 Extract System for Linear Templates (Promega, Madison, […], USA). The reactions were programmed with 100 ng of mRNA and were carried out in 5 μL aliquots at 37 °C for 30 min. The activity of in vitro synthesized luciferase was assessed using 5 μL of the substrate from the Steady-Glo Luciferase Assay System (Promega).

B. subtilis pHT01-cfr = experiment: MIC determination, broth microdilution; type: cell-based; conditions: Bacillus subtilis, PHT01CFR
Method: (§1) E. coli ∆tolC CHL-resistant strain harboring plasmid encoding for chloramphenicol acetyltransferase (cat) (pCA24N-LacZ) and the control E. coli ∆tolC strain was used to evaluate the inhibitory effect of the compounds. CHL-resistant strains of B. subtilis pHT01-cat and B. subtilis pHT01-cfr were prepared by means of a transformation of a B. subtilis 168 strain with plasmids harboring the cat and cfr genes (chloramphenicol-florfenicol resistance) gene. The cfr gene encodes for the methyltransferase, which catalyzes the methylation of […] in the 23S rRNA and causes resistance to a variety of ribosome-targeting antibiotics that bind in the A site of the bacterial ribosome.
(§2) A standard laboratory strain of B. subtilis 168 was used to obtain the CHL-resistant strains, B. subtilis pHT01-CAT and B. subtilis pHT01-cfr, by means of transformation with the corresponding plasmids. Competent cell preparation and transformation procedures were conducted, as reported in [74, 75]. The desired colonies were selected at 10 µg/mL of CHL for B. subtilis pHT01 and 5 µg/mL or 3.2 µg/mL of CHL for B. subtilis pHT01-cfr.
(§3) The MICs for CAM-Cn-TPP and Cn-TPP were determined by Mueller-Hinton broth microdilution, as recommended by CLSI in the Methods for Dilution Antimicrobial Susceptibility Tests for Bacteria that Grow Aerobically, Approved Standard, 9th ed., CLSI document M07-A9, using in-house-prepared panels. The compounds were diluted in a 96-well microtiter plate to final concentrations ranging from 0.5 to 360 μM in a 250-µL aliquot of the bacterial suspension, followed by incubation at 37 °C or 30 °C for 18 h. […] The bacterial growth was observed visually alongside OD measurements. The experiments were carried out in triplicate.

B. subtilis pHT01-cat = experiment: MIC determination, broth microdilution; type: cell-based; conditions: Bacillus subtilis, PHT01CAT
Method: as §1, §2, §3

Mycobacterium smegmatis = experiment: MIC determination, broth microdilution; type: cell-based; conditions: Mycolicibacterium smegmatis
Excerpt: (§4) Standard laboratory strains of Bacillus subtilis subs. subtilis Cohn 1872, stains BR151, and 168, Staphylococcus aureus subsp. aureus Rosenbach 1884 strains JCM 2151 and entry MC#144 (from the Microorganisms Collection of the Moscow State University), Listeria monocytogenes Pirie 1940, Mycobacterium smegmatis Lehmann and Neumann 1899 (MC#377), and Escherichia coli Castellani and Chalmers 1919, strain JW5503 (with the deletion of tolC gene), which are resistant to the chloramphenicol strains, J53rif, C600rif/pIB55-1, C600rif/pIP162-1, and C600recA naI, were used.
as §3

Bacillus subtilis = experiment: MIC determination, broth microdilution; type: cell-based
Excerpt: as §4, §3

A549 = experiment: MTT assay growth inhibition; type: cell-based, human; conditions: for GI50: Homo sapiens, A549, MTT, 72 h, read-out: 50% growth inhibition concentration (GI50); for selectivity of action for A549 and noncancerous VA13 cell lines: A549 vs VA13
Method: The cytotoxicity of the tested substances was tested using the MTT (3-(4,5-dimethylthiazol-2-yl)-2,5-diphenyltetrazolium bromide) assay, with some modifications, and 2500 cells per well for the MCF7, HEK293T, and A549 cell lines or 4000 cells per well for the VA-13 cell line were plated in 135 µL of DMEM-F12 media (Gibco, Waltham, MA, USA) in a 96-well plate and incubated in the 5% CO2 incubator for first 16 h, without treatment. Then, 15 µL of media-DMSO solutions of the tested substances was added to the cells (the final DMSO concentrations in the media were 1% or less) and treated cells for 72 h with 25 nM–50 µM (eight dilutions) of our substances (triplicate each), and serial DMSO dilutions and doxorubicin were used as controls. The MTT reagent (Paneco LLC, Moscow, Russia) was then added to cells to a final concentration of 0.5 g/L (10× stock solution in PBS was used) and incubated for 2.5 h at 37 °C in the incubator under an atmosphere of 5% CO2. The MTT solution was then discarded, and 140 µL of DMSO (PharmaMed LLC, Krasnodarsky Krai, Russia) was added. The plates were swayed on a shaker (60 rpm) to dissolve the formazan. The absorbance was measured using a microplate reader (VICTOR X5 Light Plate Reader, PerkinElmer, Waltham, MA, USA) at a wavelength of 565 nm (in order to measure formazan concentration). The results were used to construct a dose-response graph and to estimate the CC50 value.

[2] = tested on: E. coli BW25113 ΔtolC pDualrep2 reporter strain; experiment: pDualrep2 double fluorescent reporter assay on agar plate; type: cell-based; conditions: compound spotted on agar lawn, overnight 37 °C
Excerpt: Next, we tested the effects of CAM-C10-TPP and CAM-C14-TPP in bacterial cells using an E. coli ∆tolC-based reporter system, which is designed to screen inhibitors targeting either protein synthesis or DNA replication. In this reporter system, the gene of the far-red fluorescent protein, katushka2S, is inserted downstream of the genetically modified tryptophan attenuator, making it possible to express Katushka2S only upon exposure to ribosome-stalling compounds (Figure 2B, CHL and ERY, red pseudocolor rings).
Reporter strain […] [71] ΔtolC (BW25113) pDualrep2 was used, as previously described. The tested antibiotics, CAM-C10-TPP (10 mM, 1.5 μL), CAM-C14-TPP (10 mM, 1.5 μL), C10-TPP (10 mM, 1.5 μL), C14-TPP (10 mM, 1.5 μL), CAM (10 mM, 1.5 μL), CAM-Ac (10 mM, 1.5 μL), chloramphenicol (CHL, 2 mM, 1 μL), erythromycin (Ery, 7 mM, 1 μL), and levofloxacin (Lev, 70 nM, 1 μL), were applied to an agar plate that already contained a lawn of the reporter strain. After being incubated overnight at 37 °C, the plate was scanned by ChemiDoc (Bio-Rad) in the modes, “Cy3-blot” for RFP and “Cy5-blot” for Katushka2S.

Staphylococcus aureus = experiment: MIC determination, broth microdilution; type: cell-based
Excerpt: as §4
(§5) S. aureus was grown in Bacto Tryptic Soy Broth, L. monocytogenes in Brain Heart Infusion Broth, and E. coli in LB. Bacterial cells were grown at 30 °C or 37 °C in the appropriate medium at a 140 rpm shaking frequency.
as §3

Listeria monocytogenes = experiment: MIC determination, broth microdilution; type: cell-based
Excerpt: as §4, §5, §3

[3] = Table 1, double-dilution method, read-out: MIC

With `O=C(N[C@H](CO)[C@H](O)c1ccc([N+](=O)[O-])cc1)C(Cl)Cl` [CHL, chloramphenicol] the “inhibition of bacterial translation (luciferase synthesis)” value (shortened to “inhibition of bacterial translation”) [1] was “inhibits bacterial translation”, the MIC (B. subtilis pHT01-cfr) was 90 µM (≈ 29.1 µg/mL) and the MIC (B. subtilis pHT01-cat) was 180 µM (≈ 58.2 µg/mL). The MIC (Mycobacterium smegmatis; [3]) was 6 µM (≈ 1.94 µg/mL), the MIC (Bacillus subtilis; [3]) was 12 µM (≈ 3.88 µg/mL) and the GI50 (A549) was over 50 µM. The “induction of reporters (Katushka2S: ribosome stalling; RFP: DNA damage)” value (shortened to “induction of reporters”) [2] was “red pseudocolor rings are observed due to the expression of the fluorescent protein, Katushka2S (but not RFP)”, the MIC (Staphylococcus aureus; [3]) was 60 µM (≈ 19.4 µg/mL) and the MIC (Listeria monocytogenes; [3]) was 25 µM (≈ 8.08 µg/mL).

In the case of `O=C(CCCCCCCCCC[P+](c1ccccc1)(c1ccccc1)c1ccccc1)NCCCC(=O)N[C@H](CO)[C@H](O)c1ccc([N+](=O)[O-])cc1` [CAM-C14-TPP, N-[(1R,2R)-1,3-dihydroxy-1-(4-nitrophenyl)propan-2-yl]-4-(triphenyl)phosphoniumundecanamidobutamide bromide], the “inhibition of bacterial translation” value [1] is reported as “inhibits bacterial translation”, the MIC (B. subtilis pHT01-cfr) is reported as 6 µM and the MIC (B. subtilis pHT01-cat) is reported as 12.5 µM. The MIC (Mycobacterium smegmatis) was 8 µM, the MIC (Bacillus subtilis) was 12 µM and the “selectivity of action for A549 and noncancerous VA13 cell lines” value (A549) was about 2 times. The GI50 (A549) was 2.9 ± 0.4 µM, the “induction of reporters” value [2] was “red pseudocolor rings are observed due to the expression of the fluorescent protein, Katushka2S (but not RFP)” and the MIC (Staphylococcus aureus) was 12 µM. For the same compound, the MIC (Listeria monocytogenes) was 17 µM.

For `O=C(CCCCCCCCCC[P+](c1ccccc1)(c1ccccc1)c1ccccc1)N[C@H](CO)[C@H](O)c1ccc([N+](=O)[O-])cc1` [CAM-C10-TPP, (N-{[(1R,2R)-1,3-dihydroxy-1-(4-nitrophenyl)propan-2-yl]amino}-11-oxoundecyl)(triphenyl)phosphonium bromide], the “inhibition of bacterial translation” value [1] was “inhibits bacterial translation”, the MIC (B. subtilis pHT01-cfr) was 6 µM and the MIC (B. subtilis pHT01-cat) was 6 µM. The MIC (Mycobacterium smegmatis) was 2 µM, the MIC (Bacillus subtilis) was 2 µM and the “selectivity of action for A549 and noncancerous VA13 cell lines” value (A549) was “approximately 4 times”. For the same compound, the GI50 (A549) was 0.7 ± 0.1 µM, the “induction of reporters” value [2] was “red pseudocolor rings are observed due to the expression of the fluorescent protein, Katushka2S (but not RFP)” and the MIC (Staphylococcus aureus) was 5 µM. It also gave an MIC (Listeria monocytogenes) of 6 µM.
